From patent US9723840B2 (SYNGENTA PARTICIPATIONS AG, priority 2013, dated 2017)

Tests used:
Assay type in all cases: in vivo
Setaria faberi [1] = assay: Post-emergence herbicidal activity, SETFA; parameters: key: 5=total damage to plant; 0=no damage to plant; details: 1000 g/Ha, post-emergence spray (8 days cultivation), evaluated after 13 days, scale 0-5
Experimental: (§1) Seeds of a variety of test species were sown in standard soil in pots. After 8 days cultivation (post-emergence) under controlled conditions in a glasshouse (at 24/16° C., day/night; 14 hours light; 65% humidity), the plants were sprayed with an aqueous spray solution derived from the formulation of the technical active ingredient in acetone/water (50:50) solution containing 0.5% Tween 20 (polyoxyethelyene sorbitan monolaurate, CAS RN 9005-64-5). The test plants were then grown in a glasshouse under controlled conditions (at 24/16° C., day/night; 14 hours light; 65% humidity) and watered twice daily. After 13 days, the test was evaluated (5=total damage to plant; 0=no damage to plant).

Echinochloa crus-galli [2] = assay: Post-emergence herbicidal activity, ECHCG; parameters: key: 5=total damage to plant; 0=no damage to plant; details: 1000 g/Ha, post-emergence spray (8 days cultivation), evaluated after 13 days, scale 0-5
Experimental: as §1

Alopecurus myosuroides [3] = assay: Pre-emergence herbicidal activity, ALOMY; details: 1000 g/Ha, pre-emergence spray, evaluated after 13 days, scale 0-5
Experimental: as §1, with “After” for “After 8 days”, “for one day (pre-emergence)” for “(post-emergence)”

Amaranthus retroflexus [4] = assay: Post-emergence herbicidal activity, AMARE; parameters: key: 5=total damage to plant; 0=no damage to plant; details: 1000 g/Ha, post-emergence spray (8 days cultivation), evaluated after 13 days, scale 0-5
Experimental: as §1

Abutilon theophrasti [5] = assay: Pre-emergence herbicidal activity, ABUTH; parameters: key: 5=total damage to plant; 0=no damage to plant; details: 1000 g/Ha, pre-emergence spray, evaluated after 13 days, scale 0-5
Experimental: as §1, with “After” for “After 8 days”, “for one day (pre-emergence)” for “(post-emergence)”

Amaranthus retroflexus [6] = assay: Pre-emergence herbicidal activity, AMARE; parameters: key: 5=total damage to plant; 0=no damage to plant; details: 1000 g/Ha, pre-emergence spray, evaluated after 13 days, scale 0-5
Experimental: as §1, with “After” for “After 8 days”, “for one day (pre-emergence)” for “(post-emergence)”

Echinochloa crus-galli [7] = assay: Pre-emergence herbicidal activity, ECHCG; parameters: key: 5=total damage to plant; 0=no damage to plant; details: 1000 g/Ha, pre-emergence spray, evaluated after 13 days, scale 0-5
Experimental: as §1, with “After” for “After 8 days”, “for one day (pre-emergence)” for “(post-emergence)”

Alopecurus myosuroides [8] = assay: Post-emergence herbicidal activity, ALOMY; parameters: key: 5=total damage to plant; 0=no damage to plant; details: 1000 g/Ha, post-emergence spray (8 days cultivation), evaluated after 13 days, scale 0-5
Experimental: as §1

Zea mays [9] = assay: Pre-emergence herbicidal activity, ZEAMX; details: 1000 g/Ha, pre-emergence spray, evaluated after 13 days, scale 0-5
Experimental: as §1, with “After” for “After 8 days”, “for one day (pre-emergence)” for “(post-emergence)”

Setaria faberi [10] = assay: Pre-emergence herbicidal activity, SETFA; parameters: key: 5=total damage to plant; 0=no damage to plant; details: 1000 g/Ha, pre-emergence spray, evaluated after 13 days, scale 0-5
Experimental: as §1, with “After” for “After 8 days”, “for one day (pre-emergence)” for “(post-emergence)”

Abutilon theophrasti [11] = assay: Post-emergence herbicidal activity, ABUTH; parameters: key: 5=total damage to plant; 0=no damage to plant; details: 1000 g/Ha, post-emergence spray (8 days cultivation), evaluated after 13 days, scale 0-5
Experimental: as §1

Zea mays [12] = assay: Post-emergence herbicidal activity, ZEAMX; parameters: key: 5=total damage to plant; 0=no damage to plant; details: 1000 g/Ha, post-emergence spray (8 days cultivation), evaluated after 13 days, scale 0-5
Experimental: as §1

Compound	SETFA damage score, application post-emergence (Setaria faberi [1])	ECHCG damage score, application post-emergence (Echinochloa crus-galli [2])	ALOMY damage score, application pre-emergence (Alopecurus myosuroides [3])	AMARE damage score, application post-emergence (Amaranthus retroflexus [4])	ABUTH damage score, application pre-emergence (Abutilon theophrasti [5])	AMARE damage score, application pre-emergence (Amaranthus retroflexus [6])	ECHCG damage score, application pre-emergence (Echinochloa crus-galli [7])	ALOMY damage score, application post-emergence (Alopecurus myosuroides [8])	ZEAMX damage score, application pre-emergence (Zea mays [9])	SETFA damage score, application pre-emergence (Setaria faberi [10])	ABUTH damage score, application post-emergence (Abutilon theophrasti [11])	ZEAMX damage score, application post-emergence (Zea mays [12])
CN1CC(O)N(c2cc(C(F)(F)F)cnn2)C1=O (stereo not drawn) [Example A7, 4-hydroxy-1-methyl-3-[5-(trifluoromethyl)pyridazin-3-yl]imidazolidin-2-one]	5	5	4	5	5	5	5	5	2	5	5	5
COC1C(O)N(c2cc(C(C)(C)F)c(Cl)nn2)C(=O)N1C (stereo not drawn) [Example A8]	5	5	4	5	5	5	5	4	3	5	5	4
CCOC1C(O)N(c2cc(C(C)(C)F)c(Cl)nn2)C(=O)N1C (stereo not drawn) [Example A9, 1-[6-chloro-5-(1-fluoro-1-methyl-ethyl)pyridazin-3-yl]-4-ethoxy-5-hydroxy-3-methyl-imidazolidin-2-one]	5	5	4	5	5	5	5	5	3	5	5	5
CCOC1C(O)N(c2cc(C(C)(F)F)c(Cl)nn2)C(=O)N1C (stereo not drawn) [Example A10]	5	5	4	5	5	5	4	5	4	5	5	4
CC1C(O)N(c2cc(C(C)(F)F)c(Cl)nn2)C(=O)N1C (stereo not drawn) [Example A11]	5	5	4	5	5	5	5	5	4	5	5	5
CON1C(=O)N(c2cc(C(C)(F)F)c(Cl)nn2)C(O)C1C (stereo not drawn) [Example A12]	5	5	3	5	5	5	5	5	3	5	5	3
